Publication PMC9067983, “Identification of highly selective type II kinase inhibitors with chiral peptidomimetic tails” (Journal of Enzyme Inhibition and Medicinal Chemistry, 2022)
Where a SMILES comes first, the peptide text is derived from it. [ ]: non-standard residue; d: D form. The star is where a group is joined. X1 = Cc1ccc(Nc2ncc3c(n2)N(C)C(=O)N(c2cc(C(=O)*)ccc2C)C3)cn1; Aib = CC(C)(N)C(=O)O

Experiments:
DSS-induced colitis mice = test: DSS-induced colitis model; assay type: in vivo; conditions: 5 mg/kg, i.p., daily for 7 days, 4% DSS, day 7
Method: Male C57BL/6 mice (21 ± 2 g; 6 weeks) were obtained from Oriental Bio Inc. (Seongnam-si, Korea). All mice were bred under constant conditions (temperature: 22 ± 2 °C, humidity: 40–60%, light/dark cycle: 12 h). All animal experiments were conducted under the university guidelines of the ethical committee for Animal Care and Use of the Kyung Hee University (KHSASP-22–002).
Colitis in mice was induced by providing water containing 4% (w/v) DSS for 7 days. Mice were randomly divided into 5 groups (n = 6/group, Figure 8) as follows: control group treated with vehicle; DSS plus vehicle group exposed to 4% DSS and treated with vehicle; the other 3 groups consist of mice receiving 4% DSS was treated with 5-ASA (75 mg/kg/day, p.o.) as a positive control or 7a (1, 5 mg/kg/day, i.p.) daily for 7 days.
To calculate the severity of colitis, body weight, stool consistency, and occult/gross bleeding of all mice were assessed. DAI score was measured every day according to the following table (Table 5). The colon length was measured at end of the experiment.

c-MET = biological target: T1, c-MET (Homo sapiens, UniProt P08581); test: kinase selectivity profiling; assay type: biochemical; conditions: 10µM ATP, read-out: % inhibition (relative to DMSO)
T1 construct: purchased Reaction Biology Corp
Method: (§1) Full panel kinase profiling and kinase IC50 measurement were performed by using Reaction Biology Corp. (San Diego, USA).

CAMKK1 = biological target: T2, CAMKK1 (Homo sapiens, UniProt Q8N5S9); test: kinase selectivity profiling; assay type: biochemical; conditions: 10µM ATP, read-out: % inhibition (relative to DMSO)
T2 construct: purchased Reaction Biology Corp
Method: as §1

NEK8 = biological target: T3, NEK8 (Homo sapiens, UniProt Q86SG6); test: kinase selectivity profiling; assay type: biochemical; conditions: 10µM ATP, read-out: % inhibition (relative to DMSO)
T3 construct: purchased Reaction Biology Corp
T3 sequence (Q86SG6 whole entry): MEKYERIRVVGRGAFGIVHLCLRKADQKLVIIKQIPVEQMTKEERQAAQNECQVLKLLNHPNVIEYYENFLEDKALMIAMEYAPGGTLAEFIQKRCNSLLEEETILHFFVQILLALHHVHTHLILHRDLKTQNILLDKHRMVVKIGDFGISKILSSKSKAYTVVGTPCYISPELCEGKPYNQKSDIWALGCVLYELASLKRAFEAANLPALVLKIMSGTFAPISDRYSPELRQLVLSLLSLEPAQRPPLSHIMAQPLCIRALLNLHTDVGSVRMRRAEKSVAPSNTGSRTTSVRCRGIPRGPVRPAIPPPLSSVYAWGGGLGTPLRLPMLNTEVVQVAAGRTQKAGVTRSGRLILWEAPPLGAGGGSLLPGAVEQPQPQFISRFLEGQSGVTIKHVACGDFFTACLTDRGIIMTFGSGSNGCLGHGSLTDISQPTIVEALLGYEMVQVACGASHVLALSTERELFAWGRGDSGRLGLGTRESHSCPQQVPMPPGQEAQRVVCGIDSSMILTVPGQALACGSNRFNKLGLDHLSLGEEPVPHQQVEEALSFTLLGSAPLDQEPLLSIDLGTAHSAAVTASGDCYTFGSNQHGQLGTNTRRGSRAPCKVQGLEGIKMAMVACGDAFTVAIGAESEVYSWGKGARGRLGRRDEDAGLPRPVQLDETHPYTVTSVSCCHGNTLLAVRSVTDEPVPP
Method: as §1

FGFR2 = biological target: T4, FGFR2 (Homo sapiens, UniProt P21802); test: kinase selectivity profiling; assay type: biochemical; conditions: 10µM ATP, read-out: % inhibition (relative to DMSO)
T4 construct: purchased Reaction Biology Corp
Method: as §1

EGFR = biological target: T5, EGFR (Homo sapiens, UniProt P00533); test: kinase selectivity profiling; assay type: biochemical; conditions: 10µM ATP, read-out: % inhibition (relative to DMSO)
T5 construct: purchased Reaction Biology Corp
T5 sequence (P00533 25-1210): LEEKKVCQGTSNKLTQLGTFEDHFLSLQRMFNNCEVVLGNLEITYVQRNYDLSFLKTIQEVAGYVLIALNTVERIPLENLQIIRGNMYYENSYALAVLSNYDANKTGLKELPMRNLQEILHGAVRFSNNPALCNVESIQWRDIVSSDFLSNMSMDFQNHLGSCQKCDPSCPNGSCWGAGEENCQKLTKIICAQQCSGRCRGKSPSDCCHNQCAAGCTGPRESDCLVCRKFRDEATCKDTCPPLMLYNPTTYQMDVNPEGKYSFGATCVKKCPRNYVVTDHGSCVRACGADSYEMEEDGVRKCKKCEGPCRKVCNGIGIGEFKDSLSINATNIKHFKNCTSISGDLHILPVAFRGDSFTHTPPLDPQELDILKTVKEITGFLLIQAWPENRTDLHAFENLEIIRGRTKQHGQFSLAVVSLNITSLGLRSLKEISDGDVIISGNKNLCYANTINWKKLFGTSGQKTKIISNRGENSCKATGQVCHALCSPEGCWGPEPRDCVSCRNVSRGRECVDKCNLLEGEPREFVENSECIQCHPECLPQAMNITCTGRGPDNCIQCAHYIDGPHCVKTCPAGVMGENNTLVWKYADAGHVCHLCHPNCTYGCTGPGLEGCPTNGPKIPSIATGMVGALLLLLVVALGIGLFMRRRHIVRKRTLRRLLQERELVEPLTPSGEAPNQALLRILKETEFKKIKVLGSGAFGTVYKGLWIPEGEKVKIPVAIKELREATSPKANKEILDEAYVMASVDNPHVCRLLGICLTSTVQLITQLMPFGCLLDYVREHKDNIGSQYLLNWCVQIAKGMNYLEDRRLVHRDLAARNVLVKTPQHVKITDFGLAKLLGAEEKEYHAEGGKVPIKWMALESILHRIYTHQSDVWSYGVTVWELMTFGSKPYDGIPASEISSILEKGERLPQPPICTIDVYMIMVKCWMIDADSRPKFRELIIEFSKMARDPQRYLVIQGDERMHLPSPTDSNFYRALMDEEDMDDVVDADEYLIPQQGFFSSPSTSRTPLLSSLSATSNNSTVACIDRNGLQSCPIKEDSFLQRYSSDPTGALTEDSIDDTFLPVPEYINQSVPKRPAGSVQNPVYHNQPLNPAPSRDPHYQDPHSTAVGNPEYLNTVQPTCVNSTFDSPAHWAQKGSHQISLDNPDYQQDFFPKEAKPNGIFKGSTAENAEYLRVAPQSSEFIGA
Method: as §1

P38g = biological target: T6, P38g (Homo sapiens, UniProt P53778); test: kinase selectivity profiling; assay type: biochemical; conditions: 10µM ATP, read-out: % inhibition (relative to DMSO)
T6 construct: purchased Reaction Biology Corp
Method: as §1

KSR2 = biological target: T7, KSR2 (Homo sapiens, UniProt Q6VAB6); test: kinase selectivity profiling; assay type: biochemical; conditions: 10µM ATP, read-out: % inhibition (relative to DMSO)
T7 construct: purchased Reaction Biology Corp
Method: as §1

NEK1 = biological target: T8, NEK1 (Homo sapiens, UniProt Q96PY6); test: kinase selectivity profiling; assay type: biochemical; conditions: 10µM ATP, read-out: % inhibition (relative to DMSO)
T8 construct: purchased Reaction Biology Corp
Method: as §1

PYK2 = biological target: T9, PYK2 (Homo sapiens, UniProt Q14289); test: kinase selectivity profiling; assay type: biochemical; conditions: 10µM ATP, read-out: % inhibition (relative to DMSO)
T9 construct: purchased Reaction Biology Corp
Method: as §1

c-Src = biological target: T10, c-Src (Homo sapiens, UniProt P12931); test: kinase selectivity profiling; assay type: biochemical; conditions: 10µM ATP, read-out: % inhibition (relative to DMSO)
T10 construct: purchased Reaction Biology Corp
Method: as §1

CDK18/cyclin Y (PCTK3) = biological target: T11, CDK18/cyclin Y (PCTK3) (Homo sapiens, UniProt Q07002); test: kinase selectivity profiling; assay type: biochemical; conditions: 10µM ATP, read-out: % inhibition (relative to DMSO)
T11 construct: purchased Reaction Biology Corp
Method: as §1

CAMK2b = biological target: T12, CAMK2b (Homo sapiens, UniProt Q13554); test: kinase selectivity profiling; assay type: biochemical; conditions: 10µM ATP, read-out: % inhibition (relative to DMSO)
T12 construct: purchased Reaction Biology Corp
Method: as §1

RIPK2 = biological target: T13, RIPK2 (Homo sapiens, UniProt O43353); test: kinase selectivity profiling; assay type: biochemical; conditions: 10µM ATP, read-out: % inhibition (relative to DMSO)
T13 construct: purchased Reaction Biology Corp
Method: as §1

LRRK2 = biological target: T14, LRRK2 (Homo sapiens, UniProt Q5S007); test: kinase selectivity profiling; assay type: biochemical; conditions: 10µM ATP, read-out: % inhibition (relative to DMSO)
T14 construct: purchased Reaction Biology Corp
Method: as §1

FLT4/VEGFR3 = biological target: T15, FLT4/VEGFR3 (Homo sapiens, UniProt P35916); test: kinase selectivity profiling; assay type: biochemical; conditions: 10µM ATP, read-out: % inhibition (relative to DMSO)
T15 construct: purchased Reaction Biology Corp
T15 sequence (P35916 25-1363): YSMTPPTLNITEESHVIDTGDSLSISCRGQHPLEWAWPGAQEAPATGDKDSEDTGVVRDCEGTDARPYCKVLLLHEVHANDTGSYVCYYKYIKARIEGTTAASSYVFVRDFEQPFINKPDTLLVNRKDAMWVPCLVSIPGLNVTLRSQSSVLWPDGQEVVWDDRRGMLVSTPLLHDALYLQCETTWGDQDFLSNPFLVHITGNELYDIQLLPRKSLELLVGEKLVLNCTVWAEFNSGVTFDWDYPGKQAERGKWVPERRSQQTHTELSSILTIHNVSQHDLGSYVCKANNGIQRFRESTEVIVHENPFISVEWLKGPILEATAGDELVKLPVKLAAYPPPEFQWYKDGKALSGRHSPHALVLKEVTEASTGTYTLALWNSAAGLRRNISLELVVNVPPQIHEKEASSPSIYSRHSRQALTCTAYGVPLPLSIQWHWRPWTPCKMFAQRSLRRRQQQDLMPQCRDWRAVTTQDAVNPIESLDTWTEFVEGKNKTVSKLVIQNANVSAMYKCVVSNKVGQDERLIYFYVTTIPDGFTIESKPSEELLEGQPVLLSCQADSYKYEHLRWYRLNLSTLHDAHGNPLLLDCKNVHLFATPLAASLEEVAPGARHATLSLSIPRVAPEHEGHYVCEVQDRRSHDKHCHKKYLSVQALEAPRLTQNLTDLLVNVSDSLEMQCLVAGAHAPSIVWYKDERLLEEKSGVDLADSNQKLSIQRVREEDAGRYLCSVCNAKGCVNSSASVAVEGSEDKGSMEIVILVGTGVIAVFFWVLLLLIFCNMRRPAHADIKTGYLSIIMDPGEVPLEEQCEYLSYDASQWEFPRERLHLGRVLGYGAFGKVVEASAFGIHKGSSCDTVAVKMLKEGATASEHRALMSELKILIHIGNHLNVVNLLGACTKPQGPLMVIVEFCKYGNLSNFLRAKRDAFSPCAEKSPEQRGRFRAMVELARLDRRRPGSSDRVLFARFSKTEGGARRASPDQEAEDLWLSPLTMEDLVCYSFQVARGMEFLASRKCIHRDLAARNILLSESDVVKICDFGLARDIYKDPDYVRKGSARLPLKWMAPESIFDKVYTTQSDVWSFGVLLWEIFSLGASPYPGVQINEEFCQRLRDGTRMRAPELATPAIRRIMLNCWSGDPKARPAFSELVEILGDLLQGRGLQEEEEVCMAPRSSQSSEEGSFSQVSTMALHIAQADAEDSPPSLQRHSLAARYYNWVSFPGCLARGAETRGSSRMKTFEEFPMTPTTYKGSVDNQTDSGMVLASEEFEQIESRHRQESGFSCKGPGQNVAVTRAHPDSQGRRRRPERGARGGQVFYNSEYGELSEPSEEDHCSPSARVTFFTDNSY
Method: as §1

CAMK1b = biological target: T16, CAMK1b (Homo sapiens, UniProt Q6P2M8); test: kinase selectivity profiling; assay type: biochemical; conditions: 10µM ATP, read-out: % inhibition (relative to DMSO)
T16 construct: purchased Reaction Biology Corp
Method: as §1

LATS1 = biological target: T17, LATS1 (Homo sapiens, UniProt O95835); test: kinase selectivity profiling; assay type: biochemical; conditions: 10µM ATP, read-out: % inhibition (relative to DMSO)
T17 construct: purchased Reaction Biology Corp
Method: as §1

STK16 = biological target: T18, STK16 (Homo sapiens, UniProt O75716); test: kinase selectivity profiling; assay type: biochemical; conditions: 10µM ATP, read-out: % inhibition (relative to DMSO)
T18 construct: purchased Reaction Biology Corp
Method: as §1

PKAcg = biological target: T19, PKAcg (Homo sapiens, UniProt P22612); test: kinase selectivity profiling; assay type: biochemical; conditions: 10µM ATP, read-out: % inhibition (relative to DMSO)
T19 construct: purchased Reaction Biology Corp
Method: as §1

ULK2 = biological target: T20, ULK2 (Homo sapiens, UniProt Q8IYT8); test: kinase selectivity profiling; assay type: biochemical; conditions: 10µM ATP, read-out: % inhibition (relative to DMSO)
T20 construct: purchased Reaction Biology Corp
Method: as §1

RSK3 = biological target: T21, RSK3 (Homo sapiens, UniProt Q15349); test: kinase selectivity profiling; assay type: biochemical; conditions: 10µM ATP, read-out: % inhibition (relative to DMSO)
T21 construct: purchased Reaction Biology Corp
Method: as §1

PHKg1 = biological target: T22, PHKg1 (Homo sapiens, UniProt Q16816); test: kinase selectivity profiling; assay type: biochemical; conditions: 10µM ATP, read-out: % inhibition (relative to DMSO)
T22 construct: purchased Reaction Biology Corp
Method: as §1

VRK2 = biological target: T23, VRK2 (Homo sapiens, UniProt Q86Y07); test: kinase selectivity profiling; assay type: biochemical; conditions: 10µM ATP, read-out: % inhibition (relative to DMSO)
T23 construct: purchased Reaction Biology Corp
Method: as §1

MST1/STK4 = biological target: T24, MST1/STK4 (Homo sapiens, UniProt Q13043); test: kinase selectivity profiling; assay type: biochemical; conditions: 10µM ATP, read-out: % inhibition (relative to DMSO)
T24 construct: purchased Reaction Biology Corp
Method: as §1

CDK2/cyclin O = biological target: T25, CDK2/cyclin O (Homo sapiens, UniProt P24941); test: kinase selectivity profiling; assay type: biochemical; conditions: 10µM ATP, read-out: % inhibition (relative to DMSO)
T25 construct: purchased Reaction Biology Corp
Method: as §1

PKCiota = biological target: T26, PKCiota (Homo sapiens, UniProt P41743); test: kinase selectivity profiling; assay type: biochemical; conditions: 10µM ATP, read-out: % inhibition (relative to DMSO)
T26 construct: purchased Reaction Biology Corp
Method: as §1

NIM1 = biological target: T27, NIM1 (Homo sapiens, UniProt Q8IY84); test: kinase selectivity profiling; assay type: biochemical; conditions: 10µM ATP, read-out: % inhibition (relative to DMSO)
T27 construct: purchased Reaction Biology Corp
Method: as §1

PEAK1 = biological target: T28, PEAK1 (Homo sapiens, UniProt Q9H792); test: kinase selectivity profiling; assay type: biochemical; conditions: 10µM ATP, read-out: % inhibition (relative to DMSO)
T28 construct: purchased Reaction Biology Corp
Method: as §1

TAOK2/TAO1 = biological target: T29, TAOK2/TAO1 (Homo sapiens, UniProt Q9UL54); test: kinase selectivity profiling; assay type: biochemical; conditions: 10µM ATP, read-out: % inhibition (relative to DMSO)
T29 construct: purchased Reaction Biology Corp
Method: as §1

RIPK4 = biological target: T30, RIPK4 (Homo sapiens, UniProt P57078); test: kinase selectivity profiling; assay type: biochemical; conditions: 10µM ATP, read-out: % inhibition (relative to DMSO)
T30 construct: purchased Reaction Biology Corp
T30 sequence (P57078 whole entry): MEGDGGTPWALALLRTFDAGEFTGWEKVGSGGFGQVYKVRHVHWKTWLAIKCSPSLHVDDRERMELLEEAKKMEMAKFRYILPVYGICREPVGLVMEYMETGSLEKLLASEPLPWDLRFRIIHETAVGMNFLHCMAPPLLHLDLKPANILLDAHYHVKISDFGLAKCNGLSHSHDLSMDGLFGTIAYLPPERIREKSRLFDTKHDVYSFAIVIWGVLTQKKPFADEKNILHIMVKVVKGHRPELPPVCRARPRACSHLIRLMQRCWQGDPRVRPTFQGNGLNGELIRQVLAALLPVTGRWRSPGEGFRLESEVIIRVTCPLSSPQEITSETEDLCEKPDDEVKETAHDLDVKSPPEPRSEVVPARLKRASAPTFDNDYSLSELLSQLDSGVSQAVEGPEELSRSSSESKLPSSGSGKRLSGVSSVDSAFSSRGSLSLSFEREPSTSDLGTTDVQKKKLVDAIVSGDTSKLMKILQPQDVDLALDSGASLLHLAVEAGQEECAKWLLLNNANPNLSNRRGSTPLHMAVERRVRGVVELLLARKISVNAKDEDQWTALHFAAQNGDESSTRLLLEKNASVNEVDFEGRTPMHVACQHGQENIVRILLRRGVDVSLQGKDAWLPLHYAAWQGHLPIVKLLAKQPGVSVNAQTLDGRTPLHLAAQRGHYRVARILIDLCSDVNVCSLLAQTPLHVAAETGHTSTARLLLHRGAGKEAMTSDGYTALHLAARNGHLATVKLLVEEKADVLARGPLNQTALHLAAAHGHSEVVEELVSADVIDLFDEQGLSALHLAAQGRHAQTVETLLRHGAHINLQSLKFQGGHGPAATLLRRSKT
Method: as §1

MLCK/MYLK = biological target: T31, MLCK/MYLK (Homo sapiens, UniProt Q15746); test: kinase selectivity profiling; assay type: biochemical; conditions: 10µM ATP, read-out: % inhibition (relative to DMSO)
T31 construct: purchased Reaction Biology Corp
Method: as §1

CDK9/cyclin T1 = biological target: T32, CDK9/cyclin T1 (Homo sapiens, UniProt P50750); test: kinase selectivity profiling; assay type: biochemical; conditions: 10µM ATP, read-out: % inhibition (relative to DMSO)
T32 construct: purchased Reaction Biology Corp
Method: as §1

CAMK1a = biological target: T33, CAMK1a (Homo sapiens, UniProt Q14012); test: kinase selectivity profiling; assay type: biochemical; conditions: 10µM ATP, read-out: % inhibition (relative to DMSO)
T33 construct: purchased Reaction Biology Corp
Method: as §1

MARK2/PAR-1Ba = biological target: T34, MARK2/PAR-1Ba (Homo sapiens, UniProt Q7KZI7); test: kinase selectivity profiling; assay type: biochemical; conditions: 10µM ATP, read-out: % inhibition (relative to DMSO)
T34 construct: purchased Reaction Biology Corp
T34 sequence (Q7KZI7 whole entry): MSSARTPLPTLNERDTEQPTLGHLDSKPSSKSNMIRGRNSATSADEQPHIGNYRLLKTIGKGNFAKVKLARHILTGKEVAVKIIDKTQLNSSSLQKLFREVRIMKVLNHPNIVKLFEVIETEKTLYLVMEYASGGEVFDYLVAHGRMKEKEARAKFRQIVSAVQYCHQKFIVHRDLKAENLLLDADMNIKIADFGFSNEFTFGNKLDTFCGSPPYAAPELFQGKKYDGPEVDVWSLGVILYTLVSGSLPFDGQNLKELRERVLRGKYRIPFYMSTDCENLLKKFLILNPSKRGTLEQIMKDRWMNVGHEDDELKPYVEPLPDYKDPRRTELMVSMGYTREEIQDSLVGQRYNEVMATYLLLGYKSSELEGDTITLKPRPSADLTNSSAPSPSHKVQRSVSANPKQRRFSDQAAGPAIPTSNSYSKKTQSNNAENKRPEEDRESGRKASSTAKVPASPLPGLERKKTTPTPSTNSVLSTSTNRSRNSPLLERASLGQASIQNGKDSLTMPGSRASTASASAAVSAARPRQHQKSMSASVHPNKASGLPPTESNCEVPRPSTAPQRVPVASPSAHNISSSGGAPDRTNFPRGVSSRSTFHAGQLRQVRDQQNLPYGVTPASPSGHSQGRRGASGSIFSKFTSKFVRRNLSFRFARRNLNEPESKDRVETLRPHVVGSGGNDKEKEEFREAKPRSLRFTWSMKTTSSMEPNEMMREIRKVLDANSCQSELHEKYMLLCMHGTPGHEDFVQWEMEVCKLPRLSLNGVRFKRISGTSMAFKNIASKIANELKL
Method: as §1

CDK17/cyclin Y (PCTK2) = biological target: T35, CDK17/cyclin Y (PCTK2) (Homo sapiens, UniProt Q00537); test: kinase selectivity profiling; assay type: biochemical; conditions: 10µM ATP, read-out: % inhibition (relative to DMSO)
T35 construct: purchased Reaction Biology Corp
Method: as §1

In the case of `Cc1ccc(Nc2ncc3c(n2)N(C)C(=O)N(c2cc(C(=O)N[C@H](C(=O)N4CCC[C@H]4C(=O)NC(C)(C)C(=O)N[C@@H](CC(C)C)C(=O)N(C)C)C(C)C)ccc2C)C3)cn1` [7a, (S)-N-(1-(((S)-1-(dimethylamino)-4-methyl-1-oxopentan-2-yl)amino)-2-methyl-1-oxopropan-2-yl)-1-((4-methyl-3-(1-methyl-7-((6-methylpyridin-3-yl)amino)-2-oxo-1,4-dihydropyrimido[4,5-d]pyrimidin-3(2H)-yl)benzoyl)-L-valyl)pyrrolidine-2-carboxamide] (X1-VP[Aib]L-NMe2), the “disease activity index (DAI) symptom changes” value (DSS-induced colitis mice) is reported as “improved the symptom changes at the end of experiments”, the colon length (DSS-induced colitis mice; mean ± SE, n = 6) is reported as 5.47 ± 0.60 cm and the inhibition at 1 µM (c-MET) is reported as 14%. The inhibition at 1 µM (CAMKK1) was 0%, the inhibition at 1 µM (NEK8) was 1% and the inhibition at 1 µM (FGFR2) was 12%. For the same molecule, the inhibition at 1 µM (EGFR) was 0%, the inhibition at 1 µM (P38g) was 4% and the inhibition at 1 µM (KSR2) was 5%. The inhibition at 1 µM (NEK1) was 0%, the inhibition at 1 µM (PYK2) was 8% and the inhibition at 1 µM (c-Src) was 64%. The inhibition at 1 µM (CDK18/cyclin Y (PCTK3)) was 4%, the inhibition at 1 µM (CAMK2b) was 3% and the inhibition at 1 µM (RIPK2) was 1%. It also gave an inhibition at 1 µM (LRRK2) of 0%, an inhibition at 1 µM (FLT4/VEGFR3) of 20% and an inhibition at 1 µM (CAMK1b) of 15%. For the same molecule, the inhibition at 1 µM (LATS1) was 4%, the inhibition at 1 µM (STK16) was 0% and the inhibition at 1 µM (PKAcg) was 0%. It also gave an inhibition at 1 µM (ULK2) of 5%, an inhibition at 1 µM (RSK3) of 0% and an inhibition at 1 µM (PHKg1) of 7%. It also gave an inhibition at 1 µM (VRK2) of 0%, an inhibition at 1 µM (MST1/STK4) of 5% and an inhibition at 1 µM (CDK2/cyclin O) of 0%. It also gave an inhibition at 1 µM (PKCiota) of 3%, an inhibition at 1 µM (NIM1) of 4% and an inhibition at 1 µM (PEAK1) of 44%. For the same molecule, the inhibition at 1 µM (TAOK2/TAO1) was 4%, the inhibition at 1 µM (RIPK4) was 15% and the inhibition at 1 µM (MLCK/MYLK) was 0%. The inhibition at 1 µM (CDK9/cyclin T1) was 0%, the inhibition at 1 µM (CAMK1a) was 1% and the inhibition at 1 µM (MARK2/PAR-1Ba) was 0%. It also gave an inhibition at 1 µM (CDK17/cyclin Y (PCTK2)) of 7%.
